Data from patent US20260297031A1, “HYDROXYLAMINE-BASED BCR-ABL1 INHIBITORS FOR TREATMENT OF CANCER” (University of Georgia Research Foundation, Inc., priority 2023, published 2026).
Values after ≈ are worked out from the molar mass of the structure shown. “Also recorded” adds a separate entry of the source. Blank lines part the entries; values can stand above or below the compound they belong to.

Legend:
Aqueous solubility = conditions: phosphate buffer, pH 7.4, aqueous buffer
Method: Solubility Determinations (Independently Performed by Pharmaron Inc., Ninqbo, CN)
Test compounds and control compounds (progesterone or diclofenac) were initially prepared as 10 mM DMSO stock solutions. […] After such time, plugs and stir sticks were removed and the samples from the solubility sample plate were transferred into the filter plate. All the samples were then filtered and 5 μL of filtrate was taken and added along with 5 μL of DMSO and 490 μL of a 1:1 (v/v) mixture of H2O and acetonitrile containing internal standard (100 nM alprazolam, 200 nM Caffeine and 100 nM tolbutamide) to the plate yielding a final concentration of 3 μM. The samples were then analyzed by LC-MS and diluted according to the peak shape with ultrapure water.
Filtrate was analyzed and quantified against a standard of known concentration using LC coupled with MS peak identification and quantitation. Solubility values of test compounds and progesterone were calculated as follows and are presented as the mean of n=2 replicates: […]

[1] = Plasma protein binding by equilibrium dialysis, human plasma; type: in vitro ADME
Method: (§1) Plasma Protein Binding by Equilibrium Dialysis (Independently Performed by Pharmaron Inc., Ninqbo, CN)
(§2) Initially, 1 mM solutions of test compounds and the control compound (Ketoconzaole) were prepared in DMSO. After this, dialysis membranes were soaked in ultrapure water for 60 min to separate strips, followed by 20% aq. ethanol for 20 min, and finally in a dialysis buffer for 20 min. […] After this, 597 μL of blank plasma solution followed by 3 μL of the working solutions of either test compounds or control compound were added to a new plastic plate or separate plastic tube and the solutions were vortexed at 1,000 rpm for 2 min. Immediately after this, 50 μL of spiked plasma solution suspension was transferred to a 96-well plate to act as T=0 control. The remaining samples were treated in the same manner, whereby all remaining spiked plasma solutions were added to the incubator for the duration of the study.
(§3) Cells were then loaded with 120 μL of the plasma samples and dialyzed against an equal volume of dialysis buffer (PBS). […] At the end of incubation, the lid was removed and 50 μL of post-dialysis samples were removed from both buffer and plasma solution chambers into a separate 96-well plate for analysis. The plasma solutions (50 μL) were then added to the buffer samples along with an equal volume of PBS (50 μL) to the collected plasma solution samples. The plate was shaken at 1,000 rpm for 2 min and 400 μL of acetonitrile containing an appropriate internal standard was added to precipitate protein and release compound. The samples were then vortexed at 1,000 rpm for an additional 10 min followed by centrifugation at 3,220 g for 30 min. Supernatant (250 μL) was then added to a new 96-well plate and centrifuged again at 3,220 g for 30 min and 100 μL of this supernatant was then added to a new 96-well plate for analysis. The samples were analyzed by LC-MS/MS and 100 μL of distilled water was added to each sample prior to analysis.
(§4) Concentrations of test compounds and control compound in buffer and plasma solution chambers was determined and percentages of test compounds and control compound bound using the following equations (mean of n=2 replicates): […]

[2] = Plasma protein binding by equilibrium dialysis, rat plasma; type: in vitro ADME
Method: as §1, §2
as §3, with “Supernatant (250 μL) was then added to a new 96-well plate and centrifuged again at 3,220 g for 30 min and 100 μL of this supernatant was then added to a new 96-well plate for analysis.” left out
as §4

[3] = Metabolic stability in human liver microsomes; type: in vitro ADME; conditions: human
Method: (§5) Metabolic Stability in Liver Microsomes (Independently Performed by Pharmaron Inc., Ninqbo, CN)
(§6) This experiment was carried out under two separate set of conditions: i) with Cofactors (NADPH), which consisted of adding 25 μL of 10 mM NADPH to the incubations, giving a final NADPH concentration of 1 mM, and ii) without Cofactors (NADPH), which consisted of adding 25 μL of 100 mM phosphate buffer to the incubations. Under both sets of conditions, the final concentration of microsomes were 0.5 mg/mL. […] Samples were then centrifuged at 3,220 g for 40 min and aliquots of 100 μL of the supernatant were mixed with 100 μL of ultra-pure H2O and analyzed by LC-MS/MS.
(§7) Peak areas were determined from extracted ion chromatograms. The slope value, k, was determined by linear regression of the natural logarithm of the remaining percentage of the parent drug vs incubation time curve.

[4] = Metabolic stability in rat liver microsomes; type: in vitro ADME; conditions: rat
Method: as §5, §6, §7

[5] = Metabolic stability in human hepatocytes
Method: Metabolic Stability in Hepatocytes (Independently Performed by Pharmaron Inc., Ninqbo, CN)
After thawing was complete, hepatocytes were transferred into a 50 mL conical tube containing thawing medium and the tube was then placed into a centrifuge and spun at 100 g for 10 min. […] Using AO/PI staining, cells were counted to determine the viable cell density. […] Subsequently, 2 μL of the 100 μM test compounds or control compound solutions was transferred into the respective wells of the 96-well non-coated plate to start the reaction. […] Aliquots of 100 μL of the supernatant were then diluted by 100 μL of ultra-pure water, and the mixture was analyzed by LC-MS/MS.
All calculations were carried out using Microsoft Excel. Peak areas were determined from extracted ion chromatograms. The in-vitro half-life (t1/2) of parent compound was determined by regression of the percent parent disappearance vs. time curve.

[6] = Metabolic stability in rat hepatocytes; type: in vitro ADME; conditions: rat
Method: All calculations were carried out using Microsoft Excel. Peak areas were determined from extracted ion chromatograms.

Molt-4 cells = assay: In vitro CTG antiproliferative assay, Molt-4; type: cell-based; conditions: for IC50: Homo sapiens, Molt-4 (BCR-ABL1−), 72 h
Method: (§8) In Vitro CTG Assay (Independently Performed By: Crown Bioscience, Taicanq, CN)
(§9) Cells listed in the table above were initially harvested during logarithmic growth period followed by re-suspension and counting using a Vi cell counter (cell viability was measured by trypan blue exclusion assay). Cells were then diluted and 90 μL cell suspensions were added to 96-well plates. Plates were then incubated overnight in a humidified incubator at 37° C. with 5% CO2. To(Time 0) plate was then taken by 10 μL of culture medium being added to each well followed by 50 μL CellTiter-Glo® Reagent being added. The contents were then mixed for 2 min on an orbital shake to facilitate cell lysis. Next, the plate was incubated at room temperature for 10 min to stabilize luminescent signal. Blackseal black sticker was placed to the bottom of each plate and the luminescence was recorded using EnVision multi label reader. Test compounds and 10 μL of each 10× compound working solutions was added according to the plate inoculation map. Plates were then placed back into the incubator and after 72 h, 50 μL CellTiter-Glo® was added to each well. Contents were then mixed for 2 min on an orbital shaker to facilitate cell lysis. The plate then was incubated at room temperature for 10 min to stabilize luminescent signal. Blackseal black sticker was placed to the bottom of each plate and the luminescence recorded using EnVision multi label reader.
Relative IC50 was calculated with a dose-response curve fitted using nonlinear regression model with a sigmoidal dose response on GraphPad Prism version 9.5.1. […] The formula for calculating survival rate was (n=3 replicates): […]

K562 cells = assay: Cell viability assay, K562; type: cell-based
[7] = test system: P-glycoprotein (P-gp) and/or breast cancer resistance protein (BCRP); conditions: cited from earlier work
[8] = LogD7.4 by shake flask method; conditions: octanol/phosphate buffer, pH 7.4
BCR-ABL1 T315I = molecular target: T1, BCR-ABL1 T315I (Homo sapiens, UniProt P00519, T315I); assay: KinaseProfiler radiometric kinase assay, BCR-ABL1 T315I; type: biochemical; conditions: gatekeeper mutation
T1 construct: BCR (fusion partner, as the printed name BCR-ABL1 says)

mutant BCR-ABL1 = assay: KinaseProfiler radiometric kinase assay, mutant BCR-ABL1 kinases as a group; type: biochemical, human; conditions: read-out: IC50 against (imatinib resistant / relevant) mutant BCR-ABL1 kinases; group of mutants
Description: Biochemical Human RTK Kinase Enzymatic Radiometric Assay, KinaseProfiler (Independently Performed by Eurofins Cerep SA, FR)

KU812 cells = assay: In vitro CTG antiproliferative assay, KU812; type: cell-based; conditions: KU812, 72 h
MEG-01 cells = assay: In vitro CTG antiproliferative assay, MEG-01; type: cell-based; conditions: MEG-01, 72 h
Method: as §8
as §9, with “Plates were then placed back into the incubator and after 72 h, 50 μL CellTiter-Glo® was added to each well. Contents were then mixed for 2 min on an orbital shaker to facilitate cell lysis. The plate then was incubated at room temperature for 10 min to stabilize luminescent signal.” left out
Relative IC50 was calculated with a dose-response curve fitted using nonlinear regression model with a sigmoidal dose response on GraphPad Prism version 9.5.1. […]

SUP-B15 cells = assay: In vitro CTG antiproliferative assay, SUP-B15; type: cell-based; conditions: SUP-B15, 72 h
CHO-K1 cells = conditions: +/− S9; 0.2-500 μM

solubility kinetic at 2 h (Aqueous solubility): 14 µM (≈ 7.43 µg/mL) | % Bound ([1]; human plasma, 360 min, 5 µM): 95.47% | % Unbound ([1]; human plasma, 360 min, 5 µM): 4.52% | fu, plasma % ([1]; human, 5 μM, 360 min): 4.5% | fu, plasma % ([2]; 5 μM, 360 min): 7.2% | stability in liver microsomes, in words [3]: significant degradation | stability in liver microsomes, in words [4]: significant degradation | stability in hepatocytes, in words [5]: comparably enhanced stability | remaining at 0.5 min ([5]; hepatocytes): 100% | remaining at 0.5 h ([5]; hepatocytes): 79.3% | remaining at 1 h ([5]; hepatocytes): 54% | remaining at 2 h ([5]; hepatocytes): 20.7% | stability in hepatocytes, in words [6]: comparably enhanced stability | IC50 (Molt-4 cells): > 2000 nM | logD [8]: 3.1
Structure (SMILES): COc1cc(Nc2c(C#N)cnc3cc(OCCCN4CCN(C)CC4)c(OC)cc23)c(Cl)cc1Cl [Bosutinib, bosutinib, reference compound]
plasma protein binding, in words ([1]; human): comparable unbound plasma protein fraction | plasma protein binding, in words [2]: comparable unbound plasma protein fraction | antiproliferative activity, in words (K562 cells): picomolar activity | efflux transporter substrate (background) [7]: P-gp substrates; also recorded: potent substrates for efflux transporters

activity against BCR-ABL1 T315I, in words (BCR-ABL1 T315I): slightly reduced activity | IC50 (mutant BCR-ABL1): < 1 nM | IC50 (Molt-4 cells): > 2000 nM
Structure (SMILES): COc1cc(Nc2c(C#N)cnc3cc(OCCON4CCN(C)CC4)c(OC)cc23)c(Cl)cc1Cl [Compound 7, 4-((2,4-dichloro-5-methoxyphenyl)amino)-6-methoxy-7-(2-((4-methylpiperazin-1-yl)oxy)ethoxy)quinoline-3-carbonitrile]
antiproliferative activity, in words (KU812 cells): potent antiproliferative activity; also recorded: excellent antiproliferative activity | antiproliferative activity, in words (MEG-01 cells): potent antiproliferative activity; also recorded: excellent antiproliferative activity | antiproliferative activity, in words (SUP-B15 cells): reduced activity | antiproliferative activity, in words (Molt-4 cells; Molt-4, 72 h): minimal activity | Micronucleus result (CHO-K1 cells): neither mutagenic nor genotoxic; also recorded: Negative
